Laboratory results as given in patent US20250154154A1 (Relay Binney Street, 2nd Floor, priority 2020, published 2025).

Tests used:
SRC = SRC (Homo sapiens, UniProt P12931); assay: SRC Biochemical Assay Protocol (microfluidic mobility shift assay, FLPeptide4 substrate)
Outline: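 Recombinant SRC (0.26 nM) preincubated 30 min at RT with compound (0.0017–100 μM) and 1.5 μM FLPeptide4, then 50 μM ATP added; 90 min reaction in HEPES pH 7.4, 10 mM MgCl2, 1% DMSO, EDTA-quenched. Phosphopeptide quantified by microfluidic mobility shift; IC50 from 4-parameter logistic fit.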

RBE cells = assay: Cell Viability Protocol (CellTiterGlo), RBE cells; type: cell-based; details: RBE or SNU-1079 cells, 72 or 120 hour, cell line and time not given
Method: RBE or SNU-1079 cells were cultured in T-75 or T-175 flasks at 37° C., 5% CO2, 95% relative humidity in RPMI 1640 medium with 10% FBS and 1% Penicillin/Streptomycin (media) and detached with 0.25% trypsin/EDTA at 80-90% confluency. Cells were then seeded in 40 μL media per well in 384-well flat-bottom polystyrene microplates (Corning Cat. No. 3570) at a seeding density of 1200 cells/well and incubated for 24 hours at 37° C. with 5% CO2, 95% relative humidity. On the next day, test compounds were prepared in 10 mM DMSO stock solution and diluted to the indicated concentrations in a 384-well compound source plate. DMSO was employed as a vehicle control. Compounds (40 nL) were transferred to 384-well cell culture plate(s) using the liquid handler Echo550. Plates were incubated at 37° C. with 5% CO2 for 72 hour or 120 hour (as indicated). CellTiterGlo reagent was warmed to 37° C. and added into each well (40 μL per well). Plates were incubated at room temperature for 30 min followed by reading on the EnSpire or EnVision plate reader. Relative viability (% remaining activity) was calculated relative to DMSO control and IC50 values were obtained from dose-response data fitted to a 4-parameter curve.

[1] = system: phospho-S6RP (Ser 235/236) in RBE cells; assay: Cellular Proliferation Protocol (cellular phospho-S6RP HTRF), RBE cells; type: cell-based; details: 6 hours treatment, RBE or SNU-1079 cells, cell line not given
Method: Cellular Proliferation Protocol
Cellular phospho-S6RP (Ser 235/236) was measured using a Fluorescence Resonance Energy Transfer (FRET) sandwich assay format (Cisbio HTRF Cat. No. 64RP6PEG). This format uses 2 different, labelled antibodies (Eu^3+-Cryptate donor and d2 acceptor) that positively modulate a specific signal in proportion to phospho-S6RP (Ser 235/236) directly in cells. RBE or SNU-1079 cells were cultivated in T-75 flasks at 37° C., 5% CO2, 95% relative humidity in RPMI 1640 medium with 10% FBS and 1% Penicillin/Streptomycin and detached with trypsin/EDTA at 80-90% confluency. Cells were then seeded in 40 μL volume per well in 384-well flat-bottom polystyrene microplates (Corning Cat. No. 3570) at a seeding density of 2000 cells/well for RBE and 3000 cells/well for SNU-1079 followed by 24 hour incubation at 37° C., 5% CO2, 95% relative humidity. On the next day, compounds were diluted to […] the indicated concentrations and 40 nL of these treatment compounds, along with DMSO vehicle control, were added to the cells (final concentration of compounds is then the indicated concentrations). Treatment was carried out for 6 hours at 37° C., 5% CO2, 95% relative humidity after which the plates were cooled to room temperature before aspirating the medium. Cells were then lysed on a shaker for 45 minutes at room temperature with 20 μL of 1× supplemented lysis buffer per well. After lysis, 5 μL of pre-mixed antibodies was added per well. Plates were covered with black sealing film and incubated overnight at room temperature on a shaker before being read on a PerkinElmer EnVision microplate reader. Percent activation was calculated relative to DMSO control and IC50 values were obtained from dose-response data fitted to a 4-parameter curve.

SRC, sequence (P12931 whole entry, species assumed): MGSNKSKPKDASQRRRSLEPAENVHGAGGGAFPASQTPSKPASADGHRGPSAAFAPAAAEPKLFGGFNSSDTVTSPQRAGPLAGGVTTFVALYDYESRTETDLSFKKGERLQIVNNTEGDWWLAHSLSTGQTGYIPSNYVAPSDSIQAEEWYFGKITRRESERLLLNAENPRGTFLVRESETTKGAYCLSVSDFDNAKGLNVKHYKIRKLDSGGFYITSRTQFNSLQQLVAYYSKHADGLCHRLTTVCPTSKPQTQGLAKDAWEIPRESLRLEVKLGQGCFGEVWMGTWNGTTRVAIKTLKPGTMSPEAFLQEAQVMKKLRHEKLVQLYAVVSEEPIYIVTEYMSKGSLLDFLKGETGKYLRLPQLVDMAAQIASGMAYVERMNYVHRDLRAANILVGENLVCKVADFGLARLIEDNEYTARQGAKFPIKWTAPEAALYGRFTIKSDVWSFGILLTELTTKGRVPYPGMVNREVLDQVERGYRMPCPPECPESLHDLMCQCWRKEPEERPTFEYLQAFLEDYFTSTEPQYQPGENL

SMILES	IC50 (SRC) [nM]	IC50 (RBE cells) [nM]	IC50 [1] [nM]	IC50 ([1]; 6 h) [nM]
C=CC(=O)N1CCC(N2CC(C#Cc3c(-c4cccc5c4OCO5)c4c(N)ncnc4n3C(C)C)C2)C(O)C1 (stereo not drawn) [II-108]	≤ 10	≤ 10	≤ 10	–
CN(C)CC=CC(=O)N1CC2C(C#Cc3c(-c4cccc5c4OCO5)c4c(N)ncnc4n3C)C2C1 (stereo not drawn) [II-115]	≤ 10	10 to 1000	10 to 1000	–
C=CC(=O)N1CCC(N2CC(C#Cc3c(-c4ccc(Cl)c(C)n4)c4c(N)ncnc4n3C(C)C)C2)CC1 [II-326]	10 to 1000	10 to 1000	10 to 1000	–
C=CC(=O)N1CC[C@H](N2CC(C#Cc3c(-c4ccc(Cl)c(C)c4)c4c(N)ncnc4n3C(C)C)C2)[C@H](O)C1 [II-112]	≤ 10	10 to 1000	10 to 1000	–
Cn1c(C#CC2CC3(C2)CN(C(=O)/C=C/CN2CC(O)C2)C3)c(-c2ccc(Oc3ccccc3)cc2)c2c(N)ncnc21 [II-174, (E)-1-(6-((4-amino-7-methyl-5-(4-phenoxyphenyl)-7H-pyrrolo[2,3-d]pyrimidin-6-yl)ethynyl)-2-azaspiro[3.3]heptan-2-yl)-4-(3-hydroxyazetidin-1-yl)but-2-en-1-one]	≤ 10	10 to 1000	–	10 to 1000
C=CC(=O)N1CCC(N2CC(C#Cc3c(-c4ccc(Oc5ccccc5)cc4)c4c(N)ncnc4n3[C@@H](C)CO)C2)CC1 [II-169, (S)-1-(4-(3-((4-amino-7-(1-hydroxypropan-2-yl)-5-(4-phenoxyphenyl)-7H-pyrrolo[2,3-d]pyrimidin-6-yl)ethynyl)azetidin-1-yl)piperidin-1-yl)prop-2-en-1-one]	10 to 1000	≤ 10	–	≤ 10
C=CC(=O)N1C[C@@H]2[C@@H](C#Cc3c(-c4ccc(Oc5cccc(C)n5)c5c4OCO5)c4c(N)ncnc4n3C)[C@@H]2C1 [II-135]	10 to 1000	10 to 1000	10 to 1000	–
C=CC(=O)N1CCC(N2CC(C#Cc3c(-c4ccc5c(c4)OCCN5C)c4c(N)ncnc4n3C)C2)CC1 [II-105]	10 to 1000	10 to 1000	10 to 1000	–
CC(C)n1c(C#CC2CN(C(=O)CCl)C2)c(-c2ccc(Oc3ccccc3)cc2)c2c(N)ncnc21 [Example I-6]	≤ 10	10 to 1000	–	–
CC(c1ccccc1)N1CCC(C#Cc2c(-c3ccc(Oc4ccccc4)cc3)c3c(N)ncnc3n2C(C)C)CC1 (stereo not drawn) [II-144, 7-isopropyl-5-(4-phenoxyphenyl)-6-((1-(1-phenylethyl)piperidin-4-yl)ethynyl)-7H-pyrrolo[2,3-d]pyrimidin-4-amine]	10 to 1000	1000 to 10000	–	–
CC(C)n1c(C#CC2CCN(CCO)CC2)c(-c2ccc(Oc3ccccc3)cc2)c2c(N)ncnc21 [II-147, 2-(4-((4-amino-7-isopropyl-5-(4-phenoxyphenyl)-7H-pyrrolo[2,3-d]pyrimidin-6-yl)ethynyl)piperidin-1-yl)ethanol]	≤ 10	10 to 1000	–	–
C=CC(=O)N1CCC(C#Cc2c(-c3cnc(Oc4ccccc4)cn3)c3c(N)ncnc3n2C(C)C)CC1 [Example I-65]	10 to 1000	10 to 1000	–	–
CC(C)n1c(C#CC2CCN(C(CO)c3ccccc3)CC2)c(-c2ccc(Oc3ccccc3)cc2)c2c(N)ncnc21 (stereo not drawn) [II-143, 2-(4-((4-amino-7-isopropyl-5-(4-phenoxyphenyl)-7H-pyrrolo[2,3-d]pyrimidin-6-yl)ethynyl)piperidin-1-yl)-2-phenylethanol]	10 to 1000	1000 to 10000	–	–

Now from value to compound, other results behind:

IC50 (SRC) [nM]	SMILES	IC50 (RBE cells) [nM]	IC50 [1] [nM]	IC50 ([1]; 6 h) [nM]
10 to 1000	C=CC(=O)N1CCC(N2CC(C#Cc3c(-c4ccc5c(c4)OCCO5)c4c(N)ncnc4n3C)C2)CC1 [II-104]	10 to 1000	10 to 1000	–
≤ 10	C=CC(=O)N1C[C@@H]2[C@@H](C#Cc3c(-c4ccc(Oc5ccccc5)cc4OC)c4c(N)ncnc4n3C3CCOC3)[C@@H]2C1 (mixture of isomers) [II-40]	≤ 10	≤ 10	–
≤ 10	C=CC(=O)N1CC[C@@H](N2CC(C#Cc3c(-c4ccc(Cl)c(O)c4)c4c(N)ncnc4n3C)C2)[C@@H](O)C1 [II-65]	10 to 1000	10 to 1000	–
≤ 10	CCC(=O)N1C[C@@H]2[C@@H](C#Cc3c(-c4ccc(F)c5c4OCO5)c4c(N)ncnc4n3C(C)C)[C@@H]2C1 [II-133]	10 to 1000	10 to 1000	–
10 to 1000	C=CC(=O)N1CC[C@H](N2CC(C#Cc3c(-c4ccccc4OC)c4c(N)ncnc4n3C)C2)[C@H](O)C1 [II-274]	1000 to 10000	–	1000 to 10000
10 to 1000	C=CC(=O)N1CC[C@H](N2CC(C#Cc3c(-c4ccc(Oc5cccc(C)n5)c(OC)c4)c4c(N)ncnc4n3C)C2)[C@H](F)C1 [II-309]	10 to 1000	–	10 to 1000
≤ 10	C=CC(=O)N1C[C@@H]2[C@@H](C#Cc3c(-c4ccc(Oc5cccc(C)n5)c(OC)c4)c4c(N)ncnc4n3C(C)C)[C@@H]2C1 [II-219, 1-((1R,5S,6s)-6-((4-amino-7-isopropyl-5-(3-methoxy-4-((6-methylpyridin-2-yl)oxy)phenyl)-7H-pyrrolo[2,3-d]pyrimidin-6-yl)ethynyl)-3-azabicyclo[3.1.0]hexan-3-yl)prop-2-en-1-one]	≤ 10	–	≤ 10
10 to 1000	C=CC(=O)N1CC[C@@H](N2CC(C#Cc3c(-c4ccc(Cl)cc4)c4c(N)ncnc4n3C)C2)[C@@H](O)C1 [II-26]	10 to 1000	10 to 1000	–
10 to 1000	C=CC(=O)N1CCC(N2CC(C#Cc3c(-c4ccc(Oc5ccccn5)cc4OC)c4c(N)ncnc4n3C)C2)C[C@H]1CO (stereo partly drawn) [II-245, 1-((2S)-4-(3-((4-amino-5-(2-methoxy-4-(pyridin-2-yloxy)phenyl)-7-methyl-7H-pyrrolo[2,3-d]pyrimidin-6-yl)ethynyl)azetidin-1-yl)-2-(hydroxymethyl)piperidin-1-yl)prop-2-en-1-one]	10 to 1000	–	–
10 to 1000	COc1cc(-c2c(C#C[C@@H]3[C@H]4CN(C(=O)/C=C/CN(C)C)C[C@@H]34)n(C)c3ncnc(N)c23)ccc1Oc1ccccn1 [II-233, (E)-1-((1R,5S,6s)-6-((4-amino-5-(3-methoxy-4-(pyridin-2-yloxy)phenyl)-7-methyl-7H-pyrrolo[2,3-d]pyrimidin-6-yl)ethynyl)-3-azabicyclo[3.1.0]hexan-3-yl)-4-(dimethylamino) but-2-en-1-one]	10 to 1000	–	–
10 to 1000	C=CC(=O)N1CCC(N2CC(C#Cc3c(-c4ccc(Oc5cccc(C)n5)c(OC)c4)c4c(N)ncnc4n3C)C2)C[C@H]1CO (stereo partly drawn) [II-242, 1-((2S)-4-(3-((4-amino-5-(3-methoxy-4-(6-methylpyridin-2-yloxy)phenyl)-7-methyl-7H-pyrrolo[2,3-d]pyrimidin-6-yl)ethynyl)azetidin-1-yl)-2-(hydroxymethyl)piperidin-1-yl)prop-2-en-1-one]	10 to 1000	–	–
10 to 1000	C=CC(=O)NC1CC(C#Cc2c(-c3ccc(Oc4ccccc4)cc3)c3c(N)ncnc3n2C2CCOC2)C1 (stereo not drawn) [Example I-71]	≤ 10	–	–
≤ 10	C=CC(=O)N1CC[C@H](N2CC(C#Cc3c(-c4ccc(Cl)c(OC)c4)c4c(N)ncnc4n3C)C2)[C@H](O)C1	–	10 to 1000	–
10 to 1000	Cc1cccc(Oc2ccc(-c3c(C#C[C@@H]4[C@H]5CN(C(=O)/C=C/CN(C)C)C[C@@H]45)n(C)c4ncnc(N)c34)cc2)n1 [II-46]	10 to 1000	–	–
10 to 1000	COc1cc(-c2c(C#C[C@@H]3[C@H]4CN(C(=O)/C=C/CN5CCC(F)C5)C[C@@H]34)n(C)c3ncnc(N)c23)ccc1Oc1ccccn1 (stereo partly drawn) [II-47]	10 to 1000	–	–
